Measured values from patent US7858637B2, “Administration of TLR7 ligands and prodrugs thereof for treatment of infection by hepatitis C virus” (priority 2003, dated 2010).
Like-named read-outs stand apart in the source and are kept apart here.

What was measured:
HCV = HCV viral load reduction in patients, intravenous isatoribine; assay type: in vivo, human; conditions: 800 mg QD×7 days IV infusion
Procedure: All doses were administered by constant rate infusion over a 60-minute period, except the 800 mg dose was administered over an 80-minute period. The flow rate for each dose was as follows: 3.33 mL/min for the 200 mg dose; 6.67 mL/min for the 400 mg dose; 8.33 mL/min for the 500 mg dose; or 10.0 mL/min for the 600 mg and 800 mg dose. Four to twelve patients were enrolled in each of the dose groups (200 mg, 400 mg, 600 mg and 800 mg per dose) and received once daily intravenous infusions for 7 days. Prior to dosing, a blood sample was drawn from each patient for assessment of the genotype of the HCV virus. […] The viral load was measured by the branched DNA method ([…]3.0 bDNA assay, Bayer Diagnostics). For plasma HCV RNA, the maximum change from the pre-treatment baseline was estimated using log-transformed values.

human TLR7 = target: T1, human TLR7 (Homo sapiens, UniProt Q9NYK1); assay: HEK293-hTLR7 NF-kB luciferase reporter (C23) assay; conditions: read-out: mean fold induction of luciferase activity compared to the no drug control
T1 sequence (Q9NYK1 27-1049): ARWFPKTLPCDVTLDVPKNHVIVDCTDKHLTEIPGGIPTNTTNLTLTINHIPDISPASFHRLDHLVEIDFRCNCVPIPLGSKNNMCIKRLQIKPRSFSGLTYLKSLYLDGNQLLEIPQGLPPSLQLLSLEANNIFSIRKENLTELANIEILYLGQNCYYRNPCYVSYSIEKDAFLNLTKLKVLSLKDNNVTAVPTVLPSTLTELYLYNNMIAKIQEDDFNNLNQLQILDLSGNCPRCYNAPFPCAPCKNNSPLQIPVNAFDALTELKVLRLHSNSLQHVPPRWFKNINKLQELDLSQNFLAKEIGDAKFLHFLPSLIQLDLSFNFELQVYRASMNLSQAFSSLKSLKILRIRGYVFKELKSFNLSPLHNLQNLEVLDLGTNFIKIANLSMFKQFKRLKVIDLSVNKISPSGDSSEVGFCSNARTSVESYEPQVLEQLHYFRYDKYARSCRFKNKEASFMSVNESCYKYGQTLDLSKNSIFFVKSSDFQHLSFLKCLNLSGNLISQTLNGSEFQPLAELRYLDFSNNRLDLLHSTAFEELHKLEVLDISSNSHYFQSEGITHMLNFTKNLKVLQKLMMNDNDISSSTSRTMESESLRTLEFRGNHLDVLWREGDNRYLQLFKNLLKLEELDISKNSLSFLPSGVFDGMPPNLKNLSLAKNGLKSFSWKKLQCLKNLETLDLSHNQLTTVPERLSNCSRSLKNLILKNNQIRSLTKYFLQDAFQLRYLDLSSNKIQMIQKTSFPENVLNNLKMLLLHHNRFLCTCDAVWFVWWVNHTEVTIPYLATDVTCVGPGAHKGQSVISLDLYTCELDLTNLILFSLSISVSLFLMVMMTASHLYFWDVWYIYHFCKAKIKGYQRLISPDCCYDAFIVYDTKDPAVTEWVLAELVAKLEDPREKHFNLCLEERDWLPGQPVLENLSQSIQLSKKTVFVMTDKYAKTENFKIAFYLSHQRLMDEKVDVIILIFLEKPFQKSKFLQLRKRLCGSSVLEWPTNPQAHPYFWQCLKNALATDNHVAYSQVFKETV
Procedure: A stable HEK293-hTLR7 cell line was obtained from Invivogen (San Diego, Calif.), transfected with pNiFty2-Luc, an NF-kB inducible luciferase reporter plasmid (Invivogen) and (dual) stable transfectants selected. The resultant dual (hTLR7/pNiFty2-Luc) cell lines were functionally tested by response to loxoribine and isatoribine as measured by fold luciferase induction relative to a no drug control. […] See, e.g., Hemmi H. et al., Nat.
For a typical C23 assay, cells are seeded at 6×10^4 cells/well in 96 well plates and 4-24 hours later are treated with various concentrations of compound. After 2-48 hours exposure the cell monolayers are lyzed with passive lysis buffer (Promega) and the firefly luciferase assay carried out using the luciferase assay reagent (Promega) as specified by the manufacturer. Relative luciferase activities are expressed as folds of induction compared to the no drug control. A two-fold induction over background is considered a bona fide TLR7 agonist, dependent on this being a statistically significant increase.
In Table 1, isatoribine, was added to C23 cells for forty-eight hours, and the cells were then harvested and assayed for luciferase activity. Each time-point was assayed in triplicate.
Each time-point was assayed in triplicate.

[1] = cited from earlier work

## Nc1nc2c(sc(=O)n2[C@@H]2O[C@H](CO)[C@@H](O)[C@H]2O)c(=O)[nH]1 [Compound 21, 7-thia-8-oxoguanosine]
HCV
  patients with plasma viral load decrease of more than 0.5 log 10 units: Eight of 12
HCV; 12 patients
  mean change in plasma viral load (HCV RNA) from baseline: −0.76 log 10 units
  range of change in plasma viral load (HCV RNA) from baseline: −2.85 to +0.21 log 10 units
Human TLR7
  fold induction at 50 µM: 3.1
  fold induction at 100 µM: 3.4
  fold induction at 250 µM: 6.2
  fold induction at 500 µM: 10.9
[1]; dog, in vivo, po, 2.5 mg/kg
  Emesis or loose stool: Neg.
  GI lesions or irritation: Neg.
[1]; dog, in vivo, po, 5 mg/kg
  Emesis or loose stool: +
  GI lesions or irritation: Neg.
[1]; dog, in vivo, po, 10 mg/kg
  Emesis or loose stool: ++
  GI lesions or irritation: ++
  multiple, scattered red lesions on the intestinal mucosa (gross histopathologic evaluation of the GI tract): four of eight dogs
[1]; dogs, orally administered, established by the GI effects
  NOAEL: 5 mg/kg
